Measured values: patent publication US20140044656A1, “NOVEL USE” (DSM IP ASSETS B.V., priority 2011, published 2014)

Legend:
[1] = system: Normal human melanocytes NHM (HEMn-MP, Clonetics); test: Quantification of melanin synthesis in cell culture; assay type: cell-based; conditions: for total melanin content versus control (100%): three days, absorbance at 405 nm
Description: Normal human melanocytes NHM (HEMn-MP, Clonetics) were seeded in 96 well cell culture plates and grown to sub-confluence for two days in a mixture of M2-Medium (Clonetics) and Medium (Promocell). Culture medium was exchanged with Culture Medium containing Steviol (96%) and melanogenesis progressed for another three days at 37° C. with another medium exchange on day two. Including cell layer and culture supernatant the total melanin was extracted using 1.7M KOH with vigorous shaking at RT. The total melanin content was determined at 405 nm in an absorbance plate reader versus a control (100%)

[2] = Discoloration experiment (Pantone Color Index of aqueous solution at different pH); assay type: physicochemical; conditions: for Pantone Index: 1% solution in water
Description: Steviol (87%) was dissolved at 1 wt.-% in water and the pH adjusted to different values as shown below. At pH 9, the solution turns brown within 1 day. However, the more acidic the pH, the less discoloration was observed. The color was determined visually using the Pantone Color Index. Pantone Colours index of 1% Steviol solution in water at different pH: […]

In the case of `C=C1C[C@@]23CC[C@H]4[C@@](C)(CCC[C@@]4(C)C(=O)O)[C@@H]2CC[C@]1(O)C3` [Steviol, steviol], the “effect on the production of melanin in human melanocytes” value ([1]; 0.25-1 microM) is reported as “clear dose dependent positive effect”, the “total melanin content versus control (100%)” value ([1]; 0.25 microM) is reported as 109% and the “total melanin content versus control (100%)” value ([1]; 0.5 micro M) is reported as 124%. The “total melanin content versus control (100%)” value ([1]; 1 micro M) was 130%, the “potency relative to the positive control Glycyrrhizin” value ([1]; melanin production in human melanocytes) was “about 1000 times” and the “Pantone Index” value ([2]; pH 6, visual) was 155. The “Pantone Index” value ([2]; pH 6.5, visual) was 155, the “Pantone Index” value ([2]; pH 7, visual) was 158 and the “Pantone Index” value ([2]; pH 9, visual) was 160. The “time until solution turns brown” value ([2]; 1 wt.-% in water, pH 9) was at most 1 days.
